From patent US20220288065A1, “MONOCYCLIC AGONISTS OF STIMULATOR OF INTERFERON GENES STING” (The Scripps Research Institute, priority 2019, published 2022) come the findings set out here.

Some results are limits rather than exact numbers.

The term EC50 denotes the concentration giving half of the maximal effect.

This experiment concerns THP-1 Lucia ISG cells. The experiment is described as follows: ISG-LUC activation assay (ISRE-luciferase assay). The following applies: Homo sapiens, THP1-Lucia ISG, activity score based upon potency and efficacy data, 24 hours. The format is cell-based. An excerpt:
We have established a robust platform for identifying non-nucleotide small molecule STING agonists. This has been established using a primary assay involving a human THP-1 cell line carrying an IRF-inducible reporter with 5 copies of the IFN signaling response element. Counter screens, involving alternative reporter constructs, rodent cell-based assays, as well as cGAS and STING knock-out cell lines, are used to eliminate luciferase artifacts and ensure human-rodent cross species reactivity, as well as pathway selectivity. Biochemical assays, involving cGAS enzymatic activity and STING protein binding assays, are used to identify the specific target of identified hits.
Tissue culture. Wild-type (cat. no. thpl-isg) and STING KO (cat. no. thpd-kostg) THP-1-Lucia ISG cells were purchased from Invivogen and maintained in growth media consisting of RPMI 1640, 2 mM L-glutamine, 25 mM HEPES, 10% heat-inactivated fetal bovine serum (FBS), 1,000 units/ml penicillin, 1,000 μg/ml streptomycin, 0.25 μg/ml Amphotericin B, and 100 μg/ml zeocin unless otherwise stated.
ISRE-luciferase assay. THP-1 Lucia ISG cells were resuspended in low-serum growth media (2% FBS) at a density of 5×10^5 cells/ml and treated with test article or vehicle (DMSO). 50 μL of cells were seeded into each well of a 384-well white greiner plates and incubated for 24 hours. To evaluate expression of the luciferase reporter, 30 μl of Quanti-luc (Invivogen) detection reagent was added to each well and luminescence was read using an Envision plate reader (Perkin Elmer) set with an integration time of 0.1 seconds.
Turning to `N#Cc1cc(C(=O)O)c(NC(=O)c2ccc(-c3c[nH]nn3)nn2)cc1Cl` [Compound 72], the EC50 was greater than 20 µM.
Regarding `COC(=O)c1cc(F)c(F)cc1NC(=O)c1cc(N)c(-n2ccnc2)nn1` [Compound 41], the EC50 was less than 0.9 µM.
With `COC(=O)c1cc(F)c(F)cc1NC(=O)c1nnc(-n2ccnc2)cc1CN` [Compound 2, methyl 2-(4-(aminomethyl)-6-(1H-imidazol-1-yl)pyridazine-3-carboxamido)-4,5-difluorobenzoate] the figure was greater than 1 µM; with `COC(=O)c1cc(Cl)c(Cl)cc1NC(=O)c1ccc(N)nn1` [Compound 18], greater than 1 µM; with `C#Cc1cc(NC(=O)c2ccc(-n3ccnc3)nn2)c(C(=O)OC(OC(=O)C(C)C)C(C)C)cc1F` (stereo not drawn) [Compound 94], less than 0.9 µM.
Molecule `COC(=O)c1cc(F)c(F)cc1NC(=O)c1ccc(-n2ccnc2CO)nn1` [Compound 4] yielded an EC50 of less than 3 µM.
`COC(=O)c1cc(Cl)c(F)cc1NC(=O)c1ccc(-c2cn[nH]c2)nn1` [Compound 57]: the EC50 is less than 0.9 µM.
`O=C(Nc1cc(F)c(F)cc1C(=O)O)c1ccc(-c2cccnc2)nn1` [Compound 21]: the EC50 was greater than 1 µM.
In the case of `O=C(Nc1cc(Cl)c(Cl)cc1C(=O)O)c1cn(-c2cn[nH]c2)nn1` [Compound 64] it was greater than 1 µM.
Consider `C#Cc1cc(NC(=O)c2ccc(-n3ccnc3)nn2)c(C(=O)OC(C)C)nc1Cl` [Compound 97], for which the EC50 was less than 0.9 µM.
Turning to `C=Cc1cc(NC(=O)c2ccc(-n3ccnc3)nn2)c(C(=O)O)cc1F` [Compound 88], the EC50 was less than 0.9 µM.
`COC(=O)c1cc(C#N)c(Cl)cc1NC(=O)c1ccc(-c2c(Br)cnn2C)nn1` [Compound 27] registered an EC50 greater than 20 µM.
With `C#Cc1cc(NC(=O)c2ccc(-n3ccnc3)nn2)c(C(=O)OC)nc1C#N` [Compound 107] the figure was less than 0.9 µM; with `C#Cc1cc(NC(=O)c2ccc(-c3ccncc3)nn2)c(C(=O)O)cc1Cl` [Compound 78], less than 0.9 µM; with `COC(=O)c1cc(F)c(F)cc1NC(=O)c1cc(C)c(-n2ccnc2)nn1` [Compound 42], greater than 1 µM.
With `Nc1n[nH]cc1-c1ccc(C(=O)Nc2cc(F)c(F)cc2C(=O)O)nn1` [Compound 14] the figure was greater than 1 µM.
`COC(=O)c1cc(F)c(F)cc1NC(=O)c1ccc(N)nn1` [Compound 8] yielded an EC50 greater than 1 µM.
With `O=C(Nc1cc(F)c(Cl)cc1C(=O)O)c1ccc(-c2cn[nH]c2)nn1` [Compound 66] the figure was greater than 1 µM; with `C#Cc1cc2nc(-c3ccc(-c4ccncc4)nn3)oc(=O)c2cc1F` [Compound 3, 7-ethynyl-6-fluoro-2-(6-(pyridin-4-yl)pyridazin-3-yl)-4H-benzo[d][1,3]oxazin-4-one], less than 0.9 µM; with `CC#Cc1cc(NC(=O)c2ccc(-n3ccnc3)nn2)c(C(=O)O)cc1F` [Compound 87], less than 0.9 µM.
`COC(=O)c1sc(C)cc1NC(=O)c1ccc(-n2ccnc2)nn1` [Compound 39] registered an EC50 greater than 1 µM.
Regarding `COC(=O)c1cc(Cl)c(Cl)cc1NC(=O)c1cc(CNC(N)=O)c(-n2ccnc2)nn1` [Compound 48], the EC50 was greater than 1 µM.
Molecule `C#Cc1cc(NC(=O)c2ccc(-n3ccnc3)nn2)c(C(=O)OCCN2CCOCC2)nc1Cl` [Compound 98] yielded an EC50 of less than 0.9 µM.
The molecule `Cn1cc(C#N)c(-c2ccc(C(=O)Nc3cc(Cl)c(Cl)cc3C(=O)O)nn2)n1` [Compound 32] showed an EC50 greater than 20 µM.
As to `O=C(Nc1cc(Cl)c(Cl)nc1C(=O)O)c1ccc(-c2cn[nH]c2)nn1` [Compound 52], the EC50 is less than 0.9 µM.
With `COC(=O)c1cc(F)c(F)cc1NC(=O)c1nnc(-n2ccnc2)cc1C` [Compound 43] the figure was greater than 1 µM.
Consider `COC(=O)NCCNc1cc(C(=O)Nc2cc(F)c(F)cc2C(=O)OCc2ccc(OC)cc2)nnc1-n1ccnc1` [Compound 61], for which the EC50 is greater than 1 µM.
With `COC(=O)c1cc(F)c(Cl)cc1NC(=O)c1ccc(-c2cn[nH]c2)nn1` [Compound 69] the figure was less than 0.9 µM.
Consider `C#Cc1cc(NC(=O)c2ccc(-n3ccnc3)nn2)c(C(=O)NCCO)nc1Cl` [Compound 105], for which the EC50 is greater than 1 µM.
In the case of `C#Cc1cc2nc(-c3ccc(-n4ccnc4)nn3)oc(=O)c2cc1Cl` [Compound 80] it was less than 0.9 µM; in that of `C#Cc1cc(NC(=O)c2ccc(-c3ccncc3)nn2)c(C(=O)O)cc1F` [Compound 1, lithium 4-ethynyl-5-fluoro-2-(6-(pyridin-4-yl)pyridazine-3-carboxamido) benzoate], less than 0.9 µM.
In the case of `COC(=O)c1cc(F)c(F)cc1NC(=O)c1ccc(-c2c[nH]nn2)nn1` [Compound 15] it was less than 0.9 µM; in that of `C/C=C/c1cc(NC(=O)c2ccc(-n3ccnc3)nn2)c(C(=O)O)cc1F` [Compound 89], less than 0.9 µM; in that of `COc1cncc(-c2ccc(C(=O)Nc3cc(F)c(F)cc3C(=O)O)nn2)c1` [Compound 19], greater than 1 µM.
`COC(=O)c1cc(C#N)c(C#N)cc1NC(=O)c1ccc(-c2c(C#N)cnn2C)nn1` [Compound 71] gave an EC50 greater than 20 µM.
For `CC#Cc1cc(NC(=O)c2ccc(-n3ccnc3)nn2)c(C(=O)OCC)nc1Cl` [Compound 95], the EC50 was less than 0.9 µM.
